Measurements reported in paper PMC12518037, “Design, Synthesis, Biological Evaluation, and In Silico Study of Tetrahydropyridines as Prospective Monoamine Oxidase Inhibitors” (ChemistryOpen, 2025).

Key:
MAO‐A = biological target: T1, MAO‐A (Homo sapiens, UniProt P21397); test: MAO-A inhibition assay (Amplex red fluorescence, tyramine substrate); format: biochemical; conditions: percent inhibition observed at 100 μM
T1 sequence (P21397 1-527): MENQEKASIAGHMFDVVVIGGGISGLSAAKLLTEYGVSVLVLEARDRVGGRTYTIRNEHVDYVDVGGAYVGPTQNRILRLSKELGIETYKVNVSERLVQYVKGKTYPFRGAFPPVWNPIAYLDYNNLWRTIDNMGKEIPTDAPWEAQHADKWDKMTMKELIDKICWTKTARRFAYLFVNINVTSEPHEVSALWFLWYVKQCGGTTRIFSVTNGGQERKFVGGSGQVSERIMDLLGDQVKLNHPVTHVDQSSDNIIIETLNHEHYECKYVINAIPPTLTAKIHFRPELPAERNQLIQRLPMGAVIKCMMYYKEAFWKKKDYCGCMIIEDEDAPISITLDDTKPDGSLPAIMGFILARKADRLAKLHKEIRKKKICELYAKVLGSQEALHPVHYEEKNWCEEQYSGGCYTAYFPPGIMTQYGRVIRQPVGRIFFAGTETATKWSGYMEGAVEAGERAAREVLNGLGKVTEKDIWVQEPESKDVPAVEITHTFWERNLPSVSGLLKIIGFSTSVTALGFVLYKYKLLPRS
Method: (§1) The range of compounds used in the study started at 1 mM for the initial screening to determine the percentage of inhibition. […] For 10 minutes, the reaction mixture was incubated at 37 °C. Tyramine, a substrate with a final concentration of 0.30 mM, was added to each well after 15 minutes, followed by 10 μL of Amplex red, a fluorogenic substrate. The FLUOstar Omega fluorescence plate reader (BMG Labtech GmbH, Ortenberg, Germany) was used to detect the change in fluorescence.

MAO‐B = biological target: T2, MAO‐B (Homo sapiens, UniProt P27338); test: MAO-B inhibition assay (Amplex red fluorescence, tyramine substrate); format: biochemical; conditions: percent inhibition observed at 100 μM
T2 sequence (P27338 2-520): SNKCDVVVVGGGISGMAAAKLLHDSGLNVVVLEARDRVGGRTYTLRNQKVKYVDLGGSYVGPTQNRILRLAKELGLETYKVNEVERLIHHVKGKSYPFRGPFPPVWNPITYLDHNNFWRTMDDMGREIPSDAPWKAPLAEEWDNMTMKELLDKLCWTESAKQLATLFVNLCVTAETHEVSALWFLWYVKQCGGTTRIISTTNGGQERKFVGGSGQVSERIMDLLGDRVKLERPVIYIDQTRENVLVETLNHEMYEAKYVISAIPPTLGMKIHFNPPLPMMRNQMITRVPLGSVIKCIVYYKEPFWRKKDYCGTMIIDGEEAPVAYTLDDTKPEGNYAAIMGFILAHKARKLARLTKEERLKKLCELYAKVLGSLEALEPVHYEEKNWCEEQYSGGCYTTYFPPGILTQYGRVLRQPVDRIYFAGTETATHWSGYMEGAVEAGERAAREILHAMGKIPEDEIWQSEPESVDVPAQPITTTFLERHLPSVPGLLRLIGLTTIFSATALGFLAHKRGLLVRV
Method: as §1

Row | SMILES | inhibition at 100 µM (MAO‐A) [%] | inhibition at 100 µM (MAO‐B) [%]
1 | CCOC(=O)C1=C(Nc2ccc(Cl)cc2)CC(c2ccccc2)N(c2ccc(Cl)cc2)C1c1ccccc1 (centres unmarked) [4 b, Ethyl 1‐(4‐chlorophenyl)‐4‐(4‐chlorophenylamino)‐2,6‐diphenyl‐1,2,5,6‐tetrahydropyridine‐3‐carboxylate] | 40 | –
2 | CCOC(=O)C1=C(Nc2ccc(Br)cc2)CC(c2ccc(Cl)cc2)N(c2ccc(Br)cc2)C1c1ccc(Cl)cc1 (centres unmarked) [4 h, Ethyl 1‐(4‐bromophenyl)‐4‐(4‐bromophenylamino)‐2,6‐bis(4‐chlorophenyl)‐1,2,5,6‐tetrahydropyridine‐3‐carboxylate] | < 50 | –
3 | CCOC(=O)C1=C(Nc2ccc(OC)cc2)CC(c2ccc(Cl)cc2)N(c2ccc(OC)cc2)C1c1ccc(Cl)cc1 (centres unmarked) [4 i, Ethyl 2,6‐bis(4‐chlorophenyl)‐1‐(4‐methoxyphenyl)‐4‐(4‐methoxyphenylamino)‐1,2,5,6‐tetrahydropyridine‐3‐carboxylate] | < 50 | < 50
4 | CCOC(=O)C1=C(Nc2ccc(C)cc2)CC(c2ccc(Cl)cc2)N(c2ccc(C)cc2)C1c1ccc(Cl)cc1 (centres unmarked) [4 j, Ethyl 4‐(p–toluidino)‐2,6‐bis(4‐chlorophenyl)‐1‐p–tolyl‐1,2,5,6‐tetrahydropyridine‐3‐carboxylate] | < 50 | < 50
5 | CCOC(=O)C1=C(Nc2ccc(Cl)cc2)CC(c2ccc([N+](=O)[O-])cc2)N(c2ccc(Cl)cc2)C1c1ccc([N+](=O)[O-])cc1 (centres unmarked) [4 l, Ethyl 1‐(4‐chlorophenyl)‐4‐(4‐chlorophenylamino)‐2,6‐bis(4‐nitrophenyl)‐1,2,5,6‐tetrahydropyridine‐3‐carboxylate] | – | 23
6 | CCOC(=O)C1=C(Nc2ccc(Br)cc2)CC(c2ccc([N+](=O)[O-])cc2)N(c2ccc(Br)cc2)C1c1ccc([N+](=O)[O-])cc1 (centres unmarked) [4 m, Ethyl 1‐(4‐bromophenyl)‐4‐(4‐bromophenylamino)‐2,6‐bis(4‐nitrophenyl)‐1,2,5,6‐tetrahydropyridine‐3‐carboxylate] | – | 46
